Activity calls are given as the source filed them. No cut-off for these calls is given here.
Legend:
[1] = target: Protein cereblon/Cyclin-dependent kinase 4 (Mus musculus) (UniProt P30285+Q8C7D2); assay: Protac activity at CRBN/CDK4 in mouse B16-F10 cells assessed as induction of CDK4 degradation at 0.05 uM incubated for 24 hrs by Western blot analysis; type: cell-based
[2] = target: Protein cereblon/Cyclin-dependent kinase 6 (Mus musculus) (UniProt Q8C7D2+Q64261); assay: Protac activity at CRBN/CDK6 in mouse B16-F10 cells assessed as induction of CDK4 degradation at 0.05 uM incubated for 24 hrs by Western blot analysis; type: cell-based
[3] = target: Heat shock protein HSP 90-alpha (Homo sapiens, UniProt P07900); assay: Binding affinity to CM5 sensor chip immobilized human HSP90alpha assessed as dissociation constant by SPR analysis
[4] = target: HSP90/Cyclin-dependent kinase 4 (Mus musculus, UniProt P07901+P11499+P30285); assay: HEMTAC activity at HSP90/CDK4 in mouse B16-F10 cells assessed as induction of CDK4 degradation incubated for 24 hrs by Western blot analysis; type: cell-based
[5] = target: HSP90/Cyclin-dependent kinase 6 (Mus musculus, UniProt P07901+P11499+Q64261); assay: HEMTAC activity at HSP90/CDK6 in mouse B16-F10 cells assessed as induction of […] degradation incubated for 24 hrs by Western blot analysis; type: cell-based
A549 = assay: Cytotoxicity against human A549 cells assessed as inhibition of cell growth incubated for 72 hrs by CCK-8 assay; type: functional, cell-based; conditions: A549, 72 h
HFF-1 = assay: Cytotoxicity against human HFF-1 cells assessed as reduction of cell viability incubated for 72 hrs by CCK-8 assay; type: toxicity, cell-based; conditions: hff-1, 72 h
B16-F10 [6] = assay: Cytotoxicity against mouse B16-F10 cells assessed as inhibition of cell growth incubated for 72 hrs by CCK-8 assay; type: functional, cell-based; conditions: B16-F10, 72 h
A-375 = assay: Cytotoxicity against human A-375 cells assessed as inhibition of cell growth incubated for 72 hrs by CCK-8 assay; type: functional, cell-based; conditions: A-375, 72 h
HepG2 = assay: Cytotoxicity against human HepG2 cells assessed as inhibition of cell growth incubated for 72 hrs by CCK-8 assay; type: functional, cell-based; conditions: HepG2, 72 h
MDA-MB-231 = assay: Cytotoxicity against human MDA-MB-231 cells assessed as inhibition of cell growth incubated for 72 hrs by CCK-8 assay; type: functional, cell-based; conditions: MDA-MB-231, 72 h
B16-F10 [7] = assay: Induction of apoptosis in mouse B16-F10 cells assessed as live cells at 125 nM incubated for 48 hrs by Annexin V-FITC/PI staining based flow cytometry analysis (reference value: 92.85 %); type: functional
B16-F10 [8] = assay: Induction of apoptosis in mouse B16-F10 cells assessed as early apoptotic cells at 125 nM incubated for 48 hrs by Annexin V-FITC/PI staining based flow cytometry analysis (reference value: 3.42%); type: functional
B16-F10 [9] = assay: Induction of apoptosis in mouse B16-F10 cells assessed as late apoptotic cells at 125 nM incubated for 48 hrs by Annexin V-FITC/PI staining based flow cytometry analysis (reference value: 1.97%); type: functional
B16-F10 [10] = assay: Induction of apoptosis in mouse B16-F10 cells assessed as dead cells at 125 nM incubated for 48 hrs by Annexin V-FITC/PI staining based flow cytometry analysis (reference value: 1.75%); type: functional
B16-F10 [11] = assay: Induction of apoptosis in mouse B16-F10 cells assessed as live cells at 250 nM incubated for 48 hrs by Annexin V-FITC/PI staining based flow cytometry analysis (reference value: 92.85 %); type: functional
B16-F10 [12] = assay: Induction of apoptosis in mouse B16-F10 cells assessed as early apoptotic cells at 250 nM incubated for 48 hrs by Annexin V-FITC/PI staining based flow cytometry analysis (reference value: 3.42%); type: functional
B16-F10 [13] = assay: Induction of apoptosis in mouse B16-F10 cells assessed as late apoptotic cells at 250 nM incubated for 48 hrs by Annexin V-FITC/PI staining based flow cytometry analysis (reference value: 1.97%); type: functional
B16-F10 [14] = assay: Induction of apoptosis in mouse B16-F10 cells assessed as dead cells at 250 nM incubated for 48 hrs by Annexin V-FITC/PI staining based flow cytometry analysis (reference value: 1.75%); type: functional
B16-F10 [15] = assay: Induction of cell cycle arrest in mouse B16-F10 cells assessed as accumulation of cells at G1 phase at 125 nM incubated for 24 hrs by RNase/PI staining based flow cytometry analysis (reference value: 68.89%); type: functional
B16-F10 [16] = assay: Induction of cell cycle arrest in mouse B16-F10 cells assessed as accumulation of cells at G2 phase at 125 nM incubated for 24 hrs by RNase/PI staining based flow cytometry analysis (reference value: 16.13%); type: functional
B16-F10 [17] = assay: Induction of cell cycle arrest in mouse B16-F10 cells assessed as accumulation of cells at S phase at 125 nM incubated for 24 hrs by RNase/PI staining based flow cytometry analysis (reference value: 12.45%); type: functional
B16-F10 [18] = assay: Induction of cell cycle arrest in mouse B16-F10 cells assessed as accumulation of cells at G1 phase at 250 nM incubated for 24 hrs by RNase/PI staining based flow cytometry analysis (reference value: 68.89%); type: functional
B16-F10 [19] = assay: Induction of cell cycle arrest in mouse B16-F10 cells assessed as accumulation of cells at G2 phase at 250 nM incubated for 24 hrs by RNase/PI staining based flow cytometry analysis (reference value: 16.13%); type: functional
B16-F10 [20] = assay: Induction of cell cycle arrest in mouse B16-F10 cells assessed as accumulation of cells at S phase at 250 nM incubated for 24 hrs by RNase/PI staining based flow cytometry analysis (reference value: 12.45%); type: functional
[21] = Acute toxicity in zebra fish embryos incubated for 72 hrs; set-up: species or system Danio rerio; conditions: zebrafish
[22] = Toxicity in C57BL/6J mouse implanted with mouse B16-F10 cells at 20 mg/kg, ip administered once daily for 2 weeks and measured every 2 days; type: organism-based; conditions: in vivo, 336 h
[23] = target: HSP90/Cyclin-dependent kinase 4 (Mus musculus) (UniProt P30285+P07901+P11499); assay: HEMTAC activity at HSP90/CDK4 in mouse B16-F10 cells assessed as induction of CDK4 degradation at 0.01 to 1 uM measured after 24 hrs by Western blot analysis; type: cell-based; conditions: dose 0.01-1 µM
[24] = target: HSP90/Cyclin-dependent kinase 6 (Mus musculus) (UniProt P07901+Q64261+P11499); assay: HEMTAC activity at HSP90/CDK6 in mouse B16-F10 cells assessed as induction of […] degradation at 0.01 to 1 uM measured after 24 hrs by Western blot analysis; type: cell-based; conditions: dose 0.01-1 µM

Protein cereblon/Cyclin-dependent kinase 4 (Mus musculus), sequence (P30285 whole entry, looked up): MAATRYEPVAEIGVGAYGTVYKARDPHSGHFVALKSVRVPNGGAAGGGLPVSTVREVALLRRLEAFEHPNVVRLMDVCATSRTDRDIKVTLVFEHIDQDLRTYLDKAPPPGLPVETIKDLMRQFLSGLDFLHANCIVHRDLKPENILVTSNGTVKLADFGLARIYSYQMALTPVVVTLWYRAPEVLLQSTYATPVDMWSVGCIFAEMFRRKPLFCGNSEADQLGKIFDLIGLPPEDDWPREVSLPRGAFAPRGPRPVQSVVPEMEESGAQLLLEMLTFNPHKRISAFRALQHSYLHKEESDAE
Protein cereblon/Cyclin-dependent kinase 4 (Mus musculus), sequence (Q8C7D2 whole entry, looked up): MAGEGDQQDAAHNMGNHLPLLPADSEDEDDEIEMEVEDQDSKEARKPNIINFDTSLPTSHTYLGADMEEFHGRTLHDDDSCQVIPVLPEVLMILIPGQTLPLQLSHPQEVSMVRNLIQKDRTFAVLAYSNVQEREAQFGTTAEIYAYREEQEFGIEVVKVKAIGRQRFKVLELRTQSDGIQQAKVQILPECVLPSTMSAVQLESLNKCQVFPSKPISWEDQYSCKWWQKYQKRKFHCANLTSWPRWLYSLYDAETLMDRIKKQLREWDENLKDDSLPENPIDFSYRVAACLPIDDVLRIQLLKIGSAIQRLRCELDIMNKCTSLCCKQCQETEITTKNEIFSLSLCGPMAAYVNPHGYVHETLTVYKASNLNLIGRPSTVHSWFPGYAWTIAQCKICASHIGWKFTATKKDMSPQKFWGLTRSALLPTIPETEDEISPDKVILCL

Row | Kd [3] [nM] | EC50 [4] [nM] | EC50 [5] [nM] | SMILES | IC50 (A549) [nM] | Activity (HFF-1) | IC50 (B16-F10 [6]) [nM] | IC50 (A-375) [nM] | IC50 (HepG2) [nM] | IC50 (MDA-MB-231) [nM] | further results
1 | – | – | – | CC(=O)c1c(C)c2cnc(Nc3ccc(N4CCN(CCCCNC(=O)COc5cccc6c5C(=O)N(C5CCC(=O)NC5=O)C6=O)CC4)cn3)nc2n(C2CCCC2)c1=O (configuration not stated) | – | – | – | – | – | – | Activity [1]: Active; Activity [2]: Active
2 | 67.5 | 446 | 325 | COc1c(C)cnc(Cn2cc(C#CCCn3cc(C(=O)NCCNC(=O)CN4CCN(c5ccc(Nc6ncc7c(C)c(C(C)=O)c(=O)n(C8CCCC8)c7n6)nc5)CC4)nn3)c3c(Cl)nc(N)nc32)c1C | > 10000 | Non-Toxic | 6820 | 7640 | > 10000 | 3630 | –
3 | – | – | – | CC(=O)c1c(C)c2cnc(Nc3ccc(N4CCNCC4)cn3)nc2n(C2CCCC2)c1=O [PALBOCICLIB] | > 10000 | Non-Toxic | > 10000 | > 10000 | > 10000 | > 10000 | Activity (B16-F10 [7]): 86.8%; Activity (B16-F10 [8]): 2.55%; Activity (B16-F10 [9]): 5.31%; Activity (B16-F10 [10]): 5.34%; Activity (B16-F10 [11]): 89.12%; Activity (B16-F10 [12]): 2.53%; Activity (B16-F10 [13]): 5.51%; Activity (B16-F10 [14]): 2.84%; Activity (B16-F10 [15]): 72.84%; Activity (B16-F10 [16]): 13.57%; Activity (B16-F10 [17]): 13.29%; Activity (B16-F10 [18]): 74.4%; Activity (B16-F10 [19]): 15.63%; Activity (B16-F10 [20]): 9.98%; LC50 at 72 h [21]: > 100000 nM
4 | – | – | – | COc1c(C)cnc(Cn2cnc3c(Cl)nc(N)nc32)c1C [BIIB021] | 134 | Toxic | 176 | 253 | 113 | 339 | Activity (B16-F10 [7]): 78.06%; Activity (B16-F10 [8]): 13.64%; Activity (B16-F10 [9]): 6.27%; Activity (B16-F10 [10]): 2.03%; Activity (B16-F10 [11]): 68.27%; Activity (B16-F10 [12]): 16.92%; Activity (B16-F10 [13]): 12.55%; Activity (B16-F10 [14]): 2.26%; Activity (B16-F10 [15]): 73.13%; Activity (B16-F10 [16]): 14.09%; Activity (B16-F10 [17]): 12.26%; Activity (B16-F10 [18]): 77.76%; Activity (B16-F10 [19]): 18.95%; Activity (B16-F10 [20]): 2.62%; LC50 at 72 h [21]: < 1000 nM; Activity [22]: Non-Toxic
5 | 8.39 | 96 | 88 | COc1c(C)cnc(Cn2cc(C#CCCNC(=O)CN3CCN(c4ccc(Nc5ncc6c(C)c(C(C)=O)c(=O)n(C7CCCC7)c6n5)nc4)CC3)c3c(Cl)nc(N)nc32)c1C | 607 | Non-Toxic | 821 | 906 | 547 | > 10000 | –
6 | 18.7 | 268 | 245 | COc1c(C)cnc(Cn2cc(C#CCCn3cc(C(=O)NCCOCCOCCNC(=O)CN4CCN(c5ccc(Nc6ncc7c(C)c(C(C)=O)c(=O)n(C8CCCC8)c7n6)nc5)CC4)nn3)c3c(Cl)nc(N)nc32)c1C | 3550 | Non-Toxic | 1000 | 1840 | 2540 | 1140 | –
7 | – | – | – | COc1c(C)cnc(Cn2cc(C#CCCn3cc(CNC(=O)CN4CCN(c5ccc(Nc6ncc7c(C)c(C(C)=O)c(=O)n(C8CCCC8)c7n6)nc5)CC4)nn3)c3c(Cl)nc(NC(C)=O)nc32)c1C | – | – | – | – | – | – | Activity [23]: inactive; Activity [24]: inactive
8 | 306 | > 500 | 478 | COc1c(C)cnc(Cn2cc(C#CCCn3cc(C(=O)NCCOCCNC(=O)CN4CCN(c5ccc(Nc6ncc7c(C)c(C(C)=O)c(=O)n(C8CCCC8)c7n6)nc5)CC4)nn3)c3c(Cl)nc(N)nc32)c1C | 8890 | Non-Toxic | 7880 | 6340 | 3760 | 1850 | –
9 | 460 | 110 | 105 | COc1c(C)cnc(Cn2cc(C#CCCn3cc(C(=O)N4CCN(c5ccc(Nc6ncc7c(C)c(C(C)=O)c(=O)n(C8CCCC8)c7n6)nc5)CC4)nn3)c3c(Cl)nc(N)nc32)c1C | 2440 | Non-Toxic | 546 | 293 | 1710 | > 10000 | –

From ChEMBL document CHEMBL5316290, “Targeted Protein Degradation Induced by HEMTACs Based on HSP90” (J Med Chem, 2023)
